Earlier results, collected in patent EP4759824A1, “DANSYLAMIDE-MODIFIED COMPOUNDS TARGETING PSMA, PREPARATION METHOD THEREFOR, AND USE THEREOF” (Yantai Lannacheng Biotechnology Co., Ltd., priority 2023, dated 2025).

Tested on: PSMA-positive mCRPC
Details: combined with SOC, mCRPC patients

## lutetium Lu-177 vipivotide tetraxetan [^177Lu-PSMA-617]
SOC alone 3.4 months
  median radiographic progression-free survival: 8.7 months
SOC alone 11.3 months
  median overall survival: 15.3 months
